Ten molecules from ChEMBL document CHEMBL5625214, “Synthesis of glycyrrhizin analogues as HMGB1 inhibitors and their activity against sepsis in acute kidney injury” (Eur J Med Chem, 2023) can be followed below.

The source made the active and inactive calls. The rule behind the calls is not given here. Some results are limits rather than exact numbers.

Data set [1] is described as follows: Cytotoxicity against human HK-2 cells assessed as inhibition of cell viability incubated for 24 hrs by MTT assay. It counts as toxicity, cell-based. In general terms: Tetrazolium assays rely on reduction of a dye to a coloured formazan, in cell work by metabolically active cells.
Data set [2] can be described thus: Cytotoxicity against rat H9c2 cells assessed as inhibition of cell viability incubated for 24 hrs by MTT assay. Format: toxicity, cell-based.
The nature of data set [3]: Cytotoxicity against human WI-38 cells assessed as inhibition of cell viability incubated for 24 hrs by MTT assay. It counts as toxicity, cell-based.
The next data set relates to Huh-7. The data set is described as follows: Cytotoxicity against human Huh-7 cells assessed as inhibition of cell viability incubated for 24 hrs by MTT assay. It counts as functional, cell-based. The note with it: Huh-7, 24 h.
The subject of a further data set is A549. As to the kind of experiment: Cytotoxicity against human A549 cells assessed as inhibition of cell viability incubated for 24 hrs by MTT assay. It counts as functional, cell-based. The note with it: A549, 24 h.
Data set [4] is described as follows: Cytotoxicity against mouse RAW264.7 cells assessed as cell survival at 30 uM incubated for 24 hrs by MTT assay relative to control. It counts as toxicity, cell-based. The note with it: read-out: Activity.
Data set [5] in a line: Cytotoxicity against mouse RAW264.7 cells assessed as cell survival at 60 uM incubated for 24 hrs by MTT assay relative to control. It counts as toxicity, cell-based. Conditions: read-out: Activity.
The next data set deals with RAW264.7. As to the kind of experiment: Inhibition of NO release in mouse RAW264.7 cells incubated for 24 hrs by Griess reagent based assay. It counts as functional, cell-based. Conditions: RAW264.7, 24 h. A general note: Griess reagent forms a coloured azo dye with nitrite.
Data set [6] has as its system Mus musculus. As to the kind of experiment: Anti-septic activity in C57BL/6 mouse model assessed as reversal of LPS-induced damage of renal tubules at 15 to 30 mg/kg, ip qd treated for 7 days by H and E staining based analysis. It counts as functional, organism-based. The note with it: dose 15-30 mg/kg, time 7.0 day.
In data set [7] the test system is Mus musculus. As to the kind of experiment: Anti-septic activity in C57BL/6 mouse model assessed as reversal of LPS-induced kidney injury at 15 mg/kg, ip qd treated for 7 days by H and E staining based analysis. Format: functional, organism-based. The note with it: time 7.0 day.
For data set [8], the system named is Mus musculus. As to the kind of experiment: Anti-septic activity in C57BL/6 mouse model assessed as reversal of LPS-induced inflammatory cell infiltration in renal interstitium at 15 mg/kg, ip qd treated for 7 days by H and E staining based analysis. Format: functional, organism-based. Conditions: time 7.0 day.
Data set [9] relates to Mus musculus. As to the kind of experiment: Anti-septic activity in C57BL/6 mouse model assessed as reversal of LPS-induced inflammatory cell infiltration in renal interstitium at 30 mg/kg, ip qd treated for 7 days by H and E staining based analysis. Format: functional, organism-based. Conditions: time 7.0 day.
In data set [10] the test system is Mus musculus. The data set is described as follows: Anti-septic activity in C57BL/6 mouse model assessed as reversal of LPS-induced kidney injury at 30 mg/kg, ip qd treated for 7 days by H and E staining based analysis. Format: functional, organism-based. Conditions: time 7.0 day.
In data set [11] the test system is Mus musculus. As to the kind of experiment: Anti-septic activity in C57BL/6 mouse model assessed as reversal of LPS-induced disappearance of renal internal brush border structure at 30 mg/kg, ip qd treated for 7 days by H and E staining based analysis. The note with it: time 7.0 day. It counts as functional, organism-based.
For data set [12], the system named is Mus musculus. As to the kind of experiment: Anti-septic activity in C57BL/6 mouse model assessed as reversal of LPS-induced accumulation of interstitial vacoules in kidney at 30 mg/kg, ip qd treated for 7 days by H and E staining based analysis. Conditions: time 7.0 day. Format: functional, organism-based.

For `COC(=O)[C@@]1(C)CC[C@]2(C)CC[C@]3(C)C(=CC(=O)[C@@H]4[C@@]5(C)CC[C@H](OCc6cn(C7O[C@H](COC(C)=O)[C@@H](OC(C)=O)[C@H](OC(C)=O)[C@@H]7OC(C)=O)nn6)C(C)(C)C5CC[C@]43C)[C@H]2C1` (stereo partly specified), the IC50 at 24 h in data set [1] is 57.2 µM; in data set [2], 65.3 µM; in data set [3], 89.4 µM. For the same molecule, the IC50 came to 19.7 µM with Huh-7 and 23.1 µM with A549.
As to `CC(=O)OC[C@@H]1OC(n2cc(COC(=O)[C@@]3(C)CC[C@]4(C)CC[C@]5(C)C(=CC(=O)[C@@H]6[C@@]7(C)CC[C@H](OC(=O)CCc8ccccc8)C(C)(C)C7CC[C@]65C)[C@H]4C3)nn2)[C@@H](OC(C)=O)[C@H]1OC(C)=O` (stereo partly specified), the IC50 at 24 h came out at 557 µM in data set [1], 330 µM in data set [2] and 348 µM in [3]. Moreover, the 50% inhibitory concentration (IC50) with Huh-7 was determined as 91.3 µM; with A549 it was 92.8 µM; with RAW264.7, 46.2 µM. In [4], the viability at 24 h, 30 µM was above 70%. Also, the viability at 24 h, 60 µM in data set [5] is below 70%.
Take `COC(=O)[C@@]1(C)CC[C@]2(C)CC[C@]3(C)C(=CC(=O)[C@@H]4[C@@]5(C)CC[C@H](OCc6cn(C7O[C@H](COC(C)=O)[C@@H](OC(C)=O)[C@H]7OC(C)=O)nn6)C(C)(C)C5CC[C@]43C)[C@H]2C1` (stereo partly specified): the half-maximal inhibitory concentration (IC50) at 24 h came out at 59.7 µM in data set [1], 77 µM in data set [2] and 93.9 µM in data set [3]. Also, the IC50 in the data set on Huh-7 stood at 30.1 µM; in the data set on A549 it was 27.8 µM.
Regarding `CC(=O)O[C@H]1[C@H](C)OC(n2cc(COC(=O)[C@@]3(C)CC[C@]4(C)CC[C@]5(C)C(=CC(=O)[C@@H]6[C@@]7(C)CC[C@H](OC(=O)CCc8ccccc8)C(C)(C)C7CC[C@]65C)[C@H]4C3)nn2)C[C@@H]1OC(C)=O` (stereo partly specified), the 50% inhibitory concentration (IC50) at 24 h in data set [1] is above 800 µM; in data set [2], 406 µM; in data set [3] it was above 800 µM. Also, the half-inhibitory concentration (IC50) with Huh-7 was 112 µM; in the data set with A549, 100 µM; in the data set on RAW264.7, 30.8 µM. In data set [4], the viability at 24 h, 30 µM is above 70%. Further, in data set [5], the viability at 24 h, 60 µM was below 70%.
On to `CC(=O)OC[C@@H]1OC(n2cc(COC(=O)[C@@]3(C)CC[C@]4(C)CC[C@]5(C)C(=CC(=O)[C@@H]6[C@@]7(C)CC[C@H](OC(=O)CCc8ccccc8)C(C)(C)C7CC[C@]65C)[C@H]4C3)nn2)[C@@H](OC(C)=O)[C@H](OC(C)=O)[C@H]1OC(C)=O` (stereo partly specified), for which the results for the IC50 at 24 h in [1], in [2] and in [3] were 398 µM, 294 µM and above 800 µM, respectively. Besides, the IC50 was 206 µM in the data set on Huh-7, 207 µM in the data set with A549 and 30.7 µM in the data set on RAW264.7. Also, the viability at 24 h, 30 µM in data set [4] is above 70%.
`COC(=O)[C@@]1(C)CC[C@]2(C)CC[C@]3(C)C(=CC(=O)[C@@H]4[C@@]5(C)CC[C@H](OCc6cn(C7O[C@H](COC(C)=O)[C@@H](OC(C)=O)[C@H](OC(C)=O)[C@H]7OC(C)=O)nn6)C(C)(C)C5CC[C@]43C)[C@H]2C1` (stereo partly specified): the IC50 at 24 h in data set [1] was 56.1 µM; in data set [2], 87.8 µM; in data set [3] it was 105 µM. Also, the results for the IC50 with Huh-7 and in the data set on A549 were 23.5 µM and 32.7 µM, respectively.
As for `CC1(C)[C@@H](O[C@H]2O[C@H](C(=O)O)[C@@H](O)[C@H](O)[C@H]2O[C@@H]2O[C@H](C(=O)O)[C@@H](O)[C@H](O)[C@H]2O)CC[C@]2(C)[C@H]3C(=O)C=C4[C@@H]5C[C@@](C)(C(=O)O)CC[C@]5(C)CC[C@@]4(C)[C@]3(C)CC[C@@H]12` [GLYCYRRHIZIN], the concentration for half-maximal inhibition (IC50) at 24 h in [1] worked out at 160 µM; in data set [2], 102 µM; in data set [3], 128 µM. Moreover, the IC50 with Huh-7 was found to be 65.7 µM; in the data set with A549 it was 80.3 µM; in the data set with RAW264.7 it was 20.7 µM. Besides, in data set [4], the viability at 24 h, 30 µM was above 70%. The result in the data set on Mus musculus [6], in the data set with Mus musculus [9], in the data set on Mus musculus [10], in the data set on Mus musculus [11] and in the data set on Mus musculus [12] was Active. Also, the outcome with Mus musculus [7] and in the data set on Mus musculus [8] was inactive.
With `CC(=O)OC[C@@H]1OC(n2cc(COC(=O)[C@@]3(C)CC[C@]4(C)CC[C@]5(C)C(=CC(=O)[C@@H]6[C@@]7(C)CC[C@H](OC(=O)CCc8ccccc8)C(C)(C)C7CC[C@]65C)[C@H]4C3)nn2)[C@H](OC(C)=O)[C@H](OC(C)=O)[C@@H]1OC(C)=O` (stereo partly specified), the figures for the IC50 at 24 h in [1], in data set [2] and in data set [3] were above 800 µM, above 800 µM and 590 µM, respectively. Also, the figures for the concentration for half-maximal inhibition (IC50) with Huh-7, in the data set on A549 and in the data set on RAW264.7 were 174 µM, 108 µM and 40.8 µM, respectively. Besides, the viability at 24 h, 30 µM in data set [4] is above 70%.
On to `COC(=O)[C@@]1(C)CC[C@]2(C)CC[C@]3(C)C(=CC(=O)[C@@H]4[C@@]5(C)CC[C@H](OCc6cn(C7O[C@H](COC(C)=O)[C@H](OC(C)=O)[C@H](OC(C)=O)[C@H]7OC(C)=O)nn6)C(C)(C)C5CC[C@]43C)[C@H]2C1` (stereo partly specified), for which the IC50 at 24 h in [1] was 42.2 µM; in data set [2] it was 92.4 µM; in data set [3], 96.4 µM. The values for the half-inhibitory concentration (IC50) in the data set with Huh-7 and in the data set with A549 were 28 µM and 39.4 µM, respectively.
Consider `CC(=O)OC[C@@H]1OC(n2cc(COC(=O)[C@@]3(C)CC[C@]4(C)CC[C@]5(C)C(=CC(=O)[C@@H]6[C@@]7(C)CC[C@H](OC(=O)CCc8ccccc8)C(C)(C)C7CC[C@]65C)[C@H]4C3)nn2)[C@@H](OC(C)=O)[C@H](OC(C)=O)[C@@H]1OC(C)=O` (stereo partly specified), for which the IC50 at 24 h in data set [1] came out at 127 µM; in data set [2] it was 114 µM; in [3], 201 µM. For the same molecule, the IC50 with Huh-7 came to 86.2 µM; in the data set on A549, 93.4 µM; in the data set with RAW264.7, 22.8 µM. In addition, in data set [5], the viability at 24 h, 60 µM is below 70%.

What is called IC50 is the concentration needed to halve the response being measured.
